{"source": "patent US20120264735A1", "about": "(priority 2009, published 2012)", "data": [{"biological_target": "T1, c-Met kinase (recombinant c-Met) (Homo sapiens, UniProt P08581)", "T1 construct": "0.27 nM recombinant c-Met", "T1 sequence (P08581 25-1390)": "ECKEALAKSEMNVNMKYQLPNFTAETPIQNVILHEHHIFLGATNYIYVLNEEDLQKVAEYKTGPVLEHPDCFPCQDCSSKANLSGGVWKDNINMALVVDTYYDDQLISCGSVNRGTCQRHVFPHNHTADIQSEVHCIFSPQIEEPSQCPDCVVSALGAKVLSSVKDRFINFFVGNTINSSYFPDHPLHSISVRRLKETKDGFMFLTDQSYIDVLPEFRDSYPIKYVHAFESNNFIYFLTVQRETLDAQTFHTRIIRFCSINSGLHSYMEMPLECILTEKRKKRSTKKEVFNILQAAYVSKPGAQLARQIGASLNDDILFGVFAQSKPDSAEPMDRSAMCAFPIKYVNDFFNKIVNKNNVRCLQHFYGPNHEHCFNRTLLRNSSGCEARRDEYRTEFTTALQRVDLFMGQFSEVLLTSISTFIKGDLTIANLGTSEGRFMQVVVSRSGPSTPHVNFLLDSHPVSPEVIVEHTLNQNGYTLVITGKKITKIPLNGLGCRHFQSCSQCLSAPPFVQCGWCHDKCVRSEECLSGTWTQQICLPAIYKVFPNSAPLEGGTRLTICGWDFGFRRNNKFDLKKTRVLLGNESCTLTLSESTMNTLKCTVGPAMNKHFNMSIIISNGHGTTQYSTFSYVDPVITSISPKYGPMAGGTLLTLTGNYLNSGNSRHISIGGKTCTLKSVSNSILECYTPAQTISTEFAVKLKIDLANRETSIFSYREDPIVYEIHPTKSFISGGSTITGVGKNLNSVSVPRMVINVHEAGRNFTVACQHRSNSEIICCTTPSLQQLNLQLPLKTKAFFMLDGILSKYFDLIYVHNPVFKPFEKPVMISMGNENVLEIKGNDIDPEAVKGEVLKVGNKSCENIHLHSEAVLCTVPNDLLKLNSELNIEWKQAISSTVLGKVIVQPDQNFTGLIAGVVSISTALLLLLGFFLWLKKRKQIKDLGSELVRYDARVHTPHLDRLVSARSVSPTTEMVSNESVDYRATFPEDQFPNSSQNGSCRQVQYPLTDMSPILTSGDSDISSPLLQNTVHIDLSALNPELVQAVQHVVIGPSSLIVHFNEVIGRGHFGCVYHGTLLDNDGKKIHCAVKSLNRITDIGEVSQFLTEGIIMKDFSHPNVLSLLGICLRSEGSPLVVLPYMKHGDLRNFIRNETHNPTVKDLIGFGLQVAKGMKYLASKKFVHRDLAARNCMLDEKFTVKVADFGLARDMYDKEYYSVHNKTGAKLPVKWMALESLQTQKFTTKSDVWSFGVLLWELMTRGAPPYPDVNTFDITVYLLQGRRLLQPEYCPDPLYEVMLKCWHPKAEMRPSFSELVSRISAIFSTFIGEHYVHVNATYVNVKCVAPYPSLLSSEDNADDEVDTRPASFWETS", "experiment": "In vitro kinase assay I (homogeneous time-resolved fluorescence tyrosine kinase assay)", "format": "biochemical", "procedure,_shortened": "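Biotinylated peptide (0.5 μM) phosphorylated by 0.2 nM recombinant c-Met with 50 μM MgATP, 60 min at room temperature, pH 7.4, 5% DMSO. EDTA stop; HTRF read with Eu-anti-phosphotyrosine antibody and streptavidin-APC. IC50 from 4-parameter logistic fit.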", "units": {"IC50": "nM"}, "values": [{"smiles": "CCn1cc(-n2ccc(=O)c(C(C)c3cccc(-c4ncn(CC)n4)c3)n2)cn1", "note": "(single isomer, unassigned) [Example 687, 1-(1-ethyl-1H-pyrazol-4-yl)-3-{(1R or S)-1-[3-(1-ethyl-1H-1,2,4-triazol-3-yl)phenyl]ethyl} pyridazin-4(1H)-one]", "IC50": "< 100"}, {"smiles": "CCCn1cnc(-c2cccc(C(C)c3nn(-c4cnn(CC)c4)ccc3=O)c2)n1", "note": "(single isomer, unassigned) [Example 688, 1-(1-ethyl-1H-pyrazol-4-yl)-3-{(1S or R)-1-[3-(1-propyl-1H-1,2,4-triazol-3-yl)phenyl]ethyl} pyridazin-4(1H)-one]", "IC50": "100 to 1000"}, {"smiles": "CCCn1cnc(-c2cccc(C(C)c3nn(-c4cnn(CC)c4)ccc3=O)c2)n1", "note": "(single isomer, unassigned) [Example 689]", "IC50": "< 100"}, {"smiles": "CC(c1cccc(-c2nccc(C(F)F)n2)c1)c1nn(-c2cnn(C)c2)ccc1=O", "note": "(single isomer, unassigned) [Example 690, 3-[(1R or S)-1-{3-[4-(Difluoromethyl)pyrimidin-2-yl]phenyl}ethyl]-1-(1-methyl-1H-pyrazol-4-yl)pyridazin-4(1H)-one]", "IC50": "< 100"}, {"smiles": "Cc1ccnc(-c2cccc(C(C)c3nn(-c4cnn(C)c4)ccc3=O)c2)n1", "note": "(single isomer, unassigned) [Example 691, 1-(1-methyl-1H-pyrazol-4-yl)-3-{(1R or S)-1-[3-(4-methylpyrimidin-2-yl)phenyl]ethyl} pyridazin-4(1H)-one]", "IC50": "< 100"}, {"smiles": "CC(c1cccc(-c2ncc(F)c(C3CC3)n2)c1)c1nn(-c2cnn(C)c2)ccc1=O", "note": "(single isomer, unassigned) [Example 692, 3-{(1R or S)-1-[3-(4-cyclopropyl-5-fluoropyrimidin-2-yl)phenyl]ethyl}-1-(1-methyl-1H-pyrazol-4-yl)pyridazin-4(1H)-one]", "IC50": "< 100"}, {"smiles": "Cc1nc(-c2cccc(C(C)c3nn(-c4cnn(C)c4)ccc3=O)c2)ncc1F", "note": "(single isomer, unassigned) [Example 693, 3-{(1R or S)-1-[3-(5-fluoro-4-methylpyrimidin-2-yl)phenyl]ethyl}-1}-1-(1-methyl-1H-pyrazol-4-yl)pyridazin-4(1H)-one]", "IC50": "100 to 1000"}, {"smiles": "CC(c1cccc(-c2nccc(C(C)(C)O)n2)c1)c1nn(-c2cnn(C)c2)ccc1=O", "note": "(single isomer, unassigned) [Example 694, 3-[(1R or S)-1-{3-[4-(2-hydroxypropan-2-yl)pyrimidin-2-yl]phenyl}ethyl]-1-(1-methyl-1H-pyrazol-4-yl)pyridazin-4(1H)-one]", "IC50": "100 to 1000"}, {"smiles": "COCCNc1ccnc(-c2cccc(C(C)c3nn(-c4cnn(C)c4)ccc3=O)c2)n1", "note": "(single isomer, unassigned) [Example 695, 3-[(1R or S)-1-(3-{4-[(2-Methoxyethyl)amino]pyrimidin-2-yl}phenyl)ethyl]-1-(1-methyl-1H-pyrazol-4-yl)pyridazin-4(1H)-one]", "IC50": "100 to 1000"}, {"smiles": "CCOC(=O)Nc1cccc(Cc2nn(-c3cnn(C)c3)ccc2=O)c1", "note": "[Example 1, Ethyl(3-{[1-(1-methyl-1H-pyrazol-4-yl)-4-oxo-1,4-dihydropyridazin-3-yl]methyl}phenyl)carbamate]", "IC50": "< 100"}, {"smiles": "CCOC(=O)Nc1cccc(Cc2nn(-c3cc(F)c(F)c(F)c3)ccc2=O)c1", "note": "[Example 2, Ethyl(3-{[4-oxo-1-(3,4,5-trifluorophenyl)-1,4-dihydropyridazin-3-yl]methyl}phenyl)carbamate]", "IC50": "< 100"}, {"smiles": "CCOc1cnc(-c2cccc(Cc3nn(-c4cnn(C)c4)ccc3=O)c2)nc1", "note": "[Example 3, 3-[3-(5-Ethoxypyrimidin-2-yl)benzyl]-1-(1-methyl-1H-pyrazol-4-yl)pyridazin-4(1H)-one]", "IC50": "< 100"}, {"smiles": "COCCOc1cnc(-c2cccc(Cc3nn(-c4cnn(C)c4)ccc3=O)c2)nc1", "note": "[Example 4, 3-{3-[5-(2-Methoxyethoxy)pyrimidin-2-yl]benzyl}-1-(1-methyl-1H-pyrazol-4-yl)pyridazin-4(1H)-one]", "IC50": "< 100"}, {"smiles": "COc1cnc(-c2cccc(Cc3nn(-c4cnn(C)c4)ccc3=O)c2)nc1", "note": "[Example 5, 3-[3-(5-Methoxypyrimidin-2-yl)benzyl]-1-(1-methyl-1H-pyrazol-4-yl)pyridazin-4(1H)-one]", "IC50": "< 100"}, {"smiles": "CC(C)(O)COc1cnc(-c2cccc(Cc3nn(-c4cc(F)cc(C#N)c4)ccc3=O)c2)nc1", "note": "[Example 6, 3-Fluoro-5-[3-{3-[5-(2-hydroxy-2-methylpropoxy)pyrimidin-2-yl]benzyl}-4-oxopyridazin-1(4H)-yl]benzonitrile]", "IC50": "< 100"}, {"smiles": "CC(C)COC(=O)Nc1cccc(Cc2nn(-c3cc(F)c(F)c(F)c3)ccc2=O)c1", "note": "[Example 7, 2-methylpropyl (3-{[4-oxo-1-(3,4,5-trifluorophenyl)-1,4-dihydropyridazin-3-yl]methyl}phenyl)carbamate]", "IC50": "< 100"}, {"smiles": "CCCOC(=O)Nc1cccc(Cc2nn(-c3cc(F)c(F)c(F)c3)ccc2=O)c1", "note": "[Example 8, propyl (3-{[4-oxo-1-(3,4,5-trifluorophenyl)-1,4-dihydropyridazin-3-yl]methyl}phenyl)carbamate]", "IC50": "< 100"}, {"smiles": "COc1cnc(-c2cccc(Cc3nn(-c4cc(F)c(F)c(F)c4)ccc3=O)c2)nc1", "note": "[Example 9, 3-[3-(5-methoxypyrimidin-2-yl)benzyl]-1-(3,4,5-trifluorophenyl)pyridazin-4(1H)-one]", "IC50": "< 100"}, {"smiles": "O=c1ccn(-c2cc(F)c(F)c(F)c2)nc1Cc1ccc2ncnn2c1", "note": "[Example 10, 3-([1,2,4]triazolo[1,5-a]pyridin-6-ylmethyl)-1-(3,4,5-trifluorophenyl)pyridazin-4(1H)-one]", "IC50": "1000 to 3000"}, {"smiles": "CCOC(=O)Nc1cccc(Cc2nn(-c3cc(F)cc(F)c3)ccc2=O)c1", "note": "[Example 11, ethyl (3-{[1-(3,5-difluorophenyl)-4-oxo-1,4-dihydropyridazin-3-yl]methyl}phenyl)carbamate]", "IC50": "< 100"}, {"smiles": "CCCOC(=O)Nc1cccc(Cc2nn(-c3cccc(Br)c3)ccc2=O)c1", "note": "[Example 12, propyl (3-{[1-(3-bromophenyl)-4-oxo-1,4-dihydropyridazin-3-yl]methyl}phenyl)carbamate]", "IC50": "< 100"}, {"smiles": "CCOC(=O)Nc1cccc(Cc2nn(-c3cccc(Br)c3)ccc2=O)c1", "note": "[Example 13, ethyl (3-{[1-(3-bromophenyl)-4-oxo-1,4-dihydropyridazin-3-yl]methyl}phenyl)carbamate]", "IC50": "< 100"}, {"smiles": "CCCOC(=O)Nc1cccc(Cc2nn(-c3ccc(Br)cc3)ccc2=O)c1", "note": "[Example 14, propyl (3-{[1-(4-bromophenyl)-4-oxo-1,4-dihydropyridazin-3-yl]methyl}phenyl)carbamate]", "IC50": "< 100"}, {"smiles": "COC(=O)c1cnc(-c2cccc(Cc3nn(-c4cnn(C)c4)ccc3=O)c2)nc1", "note": "[Example 15, methyl 2-(3-{[1-(1-methyl-1H-pyrazol-4-yl)-4-oxo-1,4-dihydropyridazin-3-yl]methyl}phenyl)pyrimidine-5-carboxylate]", "IC50": "< 100"}, {"smiles": "CCCOC(=O)Nc1cccc(Cc2nn(-c3cc(F)c(Br)c(F)c3)ccc2=O)c1", "note": "[Example 16, propyl (3-{[1-(4-bromo-3,5-difluorophenyl)-4-oxo-1,4-dihydropyridazin-3-yl]methyl}phenyl)carbamate]", "IC50": "< 100"}, {"smiles": "CC(C)COC(=O)Nc1cccc(Cc2nn(-c3cc(F)cc(F)c3)ccc2=O)c1", "note": "[Example 17, 2-methylpropyl (3-{[1-(3,5-difluorophenyl)-4-oxo-1,4-dihydropyridazin-3-yl]methyl}phenyl)carbamate]", "IC50": "< 100"}, {"smiles": "CCOC(=O)Nc1cccc(Cc2nn(-c3ccc(Br)cc3)ccc2=O)c1", "note": "[Example 18, ethyl (3-{[1-(4-bromophenyl)-4-oxo-1,4-dihydropyridazin-3-yl]methyl}phenyl)carbamate]", "IC50": "< 100"}, {"smiles": "Cc1cnc(-c2cccc(Cc3nn(-c4cnn(C)c4)ccc3=O)c2)s1", "note": "[Example 19, 1-(1-methyl-1H-pyrazol-4-yl)-3-[3-(5-methyl-1,3-thiazol-2-yl)benzyl]pyridazin-4(1H)-one]", "IC50": "< 100"}, {"smiles": "Cn1cc(-n2ccc(=O)c(Cc3cccc(-c4nccs4)c3)n2)cn1", "note": "[Example 20, 1-(1-methyl-1H-pyrazol-4-yl)-3-[3-(1,3-thiazol-2-yl)benzyl]pyridazin-4(1H)-one]", "IC50": "100 to 1000"}, {"smiles": "Cn1cc(-n2ccc(=O)c(Cc3cccc(-n4cccn4)c3)n2)cn1", "note": "[Example 21, 1-(1-methyl-1H-pyrazol-4-yl)-3-[3-(1H-pyrazol-1-yl)benzyl]pyridazin-4(1H)-one]", "IC50": "1000 to 3000"}, {"smiles": "O=C(Nc1cccc(Cc2nn(-c3ccc(F)c(F)c3)ccc2=O)c1)OCCN1CCOCC1", "note": "[Example 22, 2-morpholin-4-ylethyl (3-{[1-(3,4-difluorophenyl)-4-oxo-1,4-dihydropyridazin-3-yl]methyl}phenyl)carbamate]", "IC50": "< 100"}, {"smiles": "Cn1cc(-n2ccc(=O)c(Cc3ccc4[nH]c(=O)[nH]c4c3)n2)cn1", "note": "[Example 23, 5-{[1-(1-methyl-1H-pyrazol-4-yl)-4-oxo-1,4-dihydropyridazin-3-yl]methyl}-1,3-dihydro-2H-benzimidazol-2-one]", "IC50": "100 to 1000"}, {"smiles": "Cn1cc(-n2ccc(=O)c(Cc3ccc4oc(=O)[nH]c4c3)n2)cn1", "note": "[Example 24, 5-{[1-(1-methyl-1H-pyrazol-4-yl)-4-oxo-1,4-dihydropyridazin-3-yl]methyl}-1,3-benzoxazol-2(3H)-one]", "IC50": "1000 to 3000"}, {"smiles": "CCOC(=O)Nc1cccc(Cc2nn(-c3ccn(C)n3)ccc2=O)c1", "note": "[Example 25, ethyl (3-{[1-(1-methyl-1H-pyrazol-3-yl)-4-oxo-1,4-dihydropyridazin-3-yl]methyl}phenyl)carbamate]", "IC50": "100 to 1000"}, {"smiles": "CC(C)COC(=O)Nc1cccc(Cc2nn(-c3ccn(C)n3)ccc2=O)c1", "note": "[Example 26, 2-methylpropyl (3-{[1-(1-methyl-1H-pyrazol-3-yl)-4-oxo-1,4-dihydropyridazin-3-yl]methyl}phenyl)carbamate]", "IC50": "< 100"}, {"smiles": "CCCOC(=O)Nc1cccc(Cc2nn(-c3ccn(C)n3)ccc2=O)c1", "note": "[Example 27, propyl (3-{[1-(1-methyl-1H-pyrazol-3-yl)-4-oxo-1,4-dihydropyridazin-3-yl]methyl}phenyl)carbamate]", "IC50": "100 to 1000"}]}]}
